Reference: publication PMC4607724, “Discovery and optimisation studies of antimalarial phenotypic hits” (European Journal of Medicinal Chemistry, 2015)
Where two headings read alike, the source gives them in different places.

Assays:
P. falciparum K1 = test: In vitro activity against erythrocytic stages of P. falciparum, 3H-hypoxanthine incorporation assay; format: cell-based; conditions: Plasmodium falciparum
Description: (§1) VI. Design and Results of the in vitro & in vivo Studies.
A. Drug inhibition of in vitro cultured P. falciparum parasite:[2] All in vitro assays were carried out twice independently in duplicate.In vitro activity against theerythrocytic stages of P. falciparum was determined by using a 3H-hypoxanthine incorporation assay, using the chloroquine and pyrimethamine resistant K1 strain and the standard drugs chloroquine (Sigma C6628) and artemisinin (Arteannuin, Qinghaosu; Sigma 36,159- 3). Compounds were dissolved in DMSO at 10 mg/mL and added to parasite cultures incubated in RPMI 1640 medium without hypoxanthine, supplemented with HEPES (5.94 g/L), NaHCO3 (2.1 g/L), neomycin (100U/mL), AlbumaxR (5 g/L), and washed human red cells A+ at 2.5% haematocrit (0.3% parasitaemia). Serial doubling dilutions of each drug were prepared in 96-well microtiter plates and incubated in a humidified atmosphere at 37 °C; 4% CO 2, 3% O2, 93% N2. After 48 h, 50 µLof 3H-hypoxanthine (= 0.5 µCi) was added to each well of the plate. The plates were incubated for an additional 24 h under the same conditions. The plates were then harvested with a Betaplate cell harvester (Wallac, Zurich, Switzerland), and the red blood cells were transferred onto a glass fiber filter and then washed with distilled water. The dried filters were inserted into a plastic foil with 10 mL of scintillation fluid and were counted in a Betaplate™ liquid scintillation counter (Wallac, Zurich, Switzerland); IC50values were calculated from sigmoidal inhibition curves using Microsoft Excel. […]

[1] = In vitro cytotoxicity assay in L-6 cells (Alamar Blue); conditions: rat
Description: as §1
A. Drug inhibition of in vitro cultured P. falciparum parasite:[2] […]
B. In vitro cytotoxicity assay: [2] Assays were performed in 96-well microtiter plates, each well containing 100 µl of RPMI 1640 medium supplemented with 1% L-glutamine (200mM) and 10% fetal bovine serum, and 4 x 10^4 L-6 cells (a primary cell line derived from rat skeletal myoblasts).
Serial drug dilutions of seven 3-fold dilution steps covering a range from 90 to 0.123 µg/mL were prepared. After 72 h of incubation the plates were inspected under an inverted microscope to assure growth of the controls and sterile conditions. 10µL of Alamar Blue was then added to each well and the plates incubated for another 2 h. Then the plates were read with a Spectramax Gemini XS microplatefluorometer (Molecular Devices Cooperation, Sunnyvale, CA, USA) using an excitation wave length of 536 nm and an emission wave length of 588 nm. Data were analysed using the microplate reader software Softmax Pro (Molecular Devices Cooperation, Sunnyvale, CA, USA).

P. berghei ANKA GFP = test: In vivo antimalarial efficacy, P. berghei mouse model (4 days treatment); set-up: species or system Plasmodium berghei; conditions: 10 mg/kg/day × 4, ip, NMRI mice
Description: C. In vivo antimalarial efficacy studies (4 days treatment).[2]
In vivo antimalarial activity was assessed basically as previously described. Groups of three female […]
GFP-transfected P. berghei strain ANKA. .Unless otherwise indicated compounds were formulated in 100% DMSO, diluted 10-fold in distilled water and administered intraperitoneally in a volume of 10 mL kg-1 on four consecutive days (4, 24, 48 and 72 h post infection). Parasitemia was determined on day 4 post infection (24 h after last treatment) by FACS analysis. Activity was calculated as the difference between the mean per cent parasitaemia for the control (n=5 mice) and treated groups expressed as a per cent relative to the control group. The survival time in days was also recorded up to 30 days after infection. A compound was considered curative if the animal survived to day 30 after infection with no detectable parasites. In vivo efficacy studies in mice were conducted at the Swiss Tropical and Public Health Institute (Basel) according to the rules and regulations for the protection of animal rights ("Tierschutzverordnung") of the Swiss "BundesamtfürVeterinärwesen". They were approved by the veterinary office of Canton Basel-

P. falciparum = test system: P. falciparum; set-up: method as in PMID 23918316, PMID 23517371; conditions: cited from earlier work
[2] = K1 strain (chloroquine and pyrimethamine resistant), means of two independent assays, read-out: P. falc. EC50
[3] = L-6 cells (rat skeletal myoblasts)

Compound	EC50 (P. falciparum K1; [2]) [µM]	EC50 at 72 h [1, 3] [µM]	melting point	other results
CN1C(=O)/C(=C/c2ccn(Cc3ccccc3)c2)S/C1=N\c1ccccc1 [Compound 37]	3.9	> 240	155 to 156 °C	
C/N=C1\S/C(=C\c2cc(C)n(-c3ccc(N4CCOCC4)cc3)c2C)C(=O)N1C [Compound 39]	> 13	> 220	333 to 334 °C	
Cc1cc(/C=C2/SC(=N)NC2=O)c(C)n1-c1ccccc1C(F)(F)F [Compound 47]	5.8	56	285 to 290 °C	
Cc1cc(/C=C2/SC(=O)NC2=O)c(C)n1-c1ccccc1C(F)(F)F [Compound 46]	8.4	43	205 to 210 °C	
Cc1cc(C=C2C(=O)NC(=S)NC2=O)c(C)n1-c1ccccc1C(F)(F)F [Compound 52]			> 300 °C	EC50 (P. falciparum K1; K1, read-out: P. falc. EC50): 29 µM; EC50 at 72 h [1]: 16 µM
CCN(CC)CCCC(C)Nc1ccnc2cc(Cl)ccc12 (stereo not shown) [chloroquine]				EC50 (P. falciparum K1; K1, read-out: EC50, control for P. falciparum K1): 0.1 µg/mL; % Reduction parasitaemia P. berghei ANKA GFP (P. berghei ANKA GFP): 99.97%; Survival (P. berghei ANKA GFP; control 7 days): 20 days
Cc1cc(/C=C2\S/C(=N\c3ccccc3)N(C3CCCCC3)C2=O)c(C)n1CCN1CCOCC1 [Compound 27]	0.61	71		
COc1cc([C@@H]2c3cc4c(cc3[C@H](O)[C@H]3COC(=O)[C@H]23)OCO4)cc(OC)c1OC [podophyllotoxin, reference compound]				EC50 at 72 h [1]: 0.005 µg/mL
Cc1cc(/C=C2\SC(=O)NC2=O)c(C)n1-c1ccccc1C(F)(F)F [Compound 44]	1.9	64	234 to 235 °C	
Cc1cc(/C=C2\NC(=O)NC2=O)c(C)n1-c1ccccc1 [Compound 50]	11	> 320	267 to 270 °C (dec.)	
Cc1cc(/C=C2\S/C(=N\c3ccccc3)N(C3CCCCC3)C2=O)c(C)[nH]1 [Compound 30]	3.4	23		
Cc1cc(/C=C2\S/C(=N\c3ccccc3)N(C3CCCCC3)C2=O)c(C)n1C [Compound 31]	1.9	> 230	184 to 185 °C	
Cc1cc(/C=C2\S/C(=N\c3ccccc3)N(C3CCCCC3)C2=O)c(C)n1-c1ccc(C(F)(F)F)cc1 [Compound 23]	0.25	> 170	218 to 220 °C	
Cc1cc(/C=C2\S/C(=N\c3ccccc3)N(C3CCCCC3)C2=O)c(C)n1-c1cccc(C(F)(F)F)c1 [Compound 24]	1.9	> 170		
C/N=C1\S/C(=C\c2ccn(-c3ccccc3C(F)(F)F)c2)C(=O)N1C [Compound 41]	4.7	4	54 to 55 °C	
Cc1cc(/C=C2\S/C(=N\c3ccccc3)N(C)C2=O)c(C)n1-c1ccc(N2CCOCC2)cc1 [Compound 35]	1.5	120	288 °C	
Cc1cc(/C=C2\S/C(=N\c3ccccc3)N(C)C2=O)c(C)n1CCN1CCOCC1 [Compound 36]	0.99	> 210		
O=C1/C(=C/c2ccn(Cc3ccccc3)c2)S/C(=N\c2ccccc2)N1C1CCCCC1 [Compound 29]	1.6	> 200	68 to 70 °C	

Compound	EC50 (P. falciparum K1; [2]) [µM]	EC50 at 72 h [1, 3] [µM]	melting point	other results
Cc1cc(/C=C2\NC(=O)NC2=O)c(C)n1-c1ccccc1C(F)(F)F [Compound 49]	13	84	265 to 267 °C	
C/N=C1\S/C(=C\c2ccn(Cc3ccccc3)c2)C(=O)N1C [Compound 42]	9.5	> 290	128 to 130 °C	
O=C1/C(=C/c2cnn(-c3ccccc3C(F)(F)F)c2)S/C(=N\c2ccccc2)N1C1CCCCC1 [Compound 32]	1.9	> 180		
Cc1cc(/C=C2\S/C(=N\c3ccccc3)N(C3CCCCC3)C2=O)c(C)n1-c1ccc(N2CCOCC2)cc1 [Compound 26]	0.09	> 170	155 to 156 °C	
Cc1cc(/C=C2\S/C(=N\c3ccccc3)N(C)C2=O)c(C)n1-c1ccccc1 [Compound 33]	2.6	> 230	203 to 205 °C	
O=C1/C(=C/c2ccn(-c3ccccc3C(F)(F)F)c2)S/C(=N\c2ccccc2)N1C1CCCCC1 [Compound 28]	2.3	> 180	145 to 147 °C	
Cc1cc(C=C2C(=O)NC(=O)NC2=O)c(C)n1-c1ccccc1C(F)(F)F [Compound 51]			> 300 °C	EC50 (P. falciparum K1; K1, read-out: P. falc. EC50): 16 µM; EC50 at 72 h [1]: 120 µM
Cc1cc(/C=C2/SC(=S)NC2=O)c(C)n1-c1ccccc1C(F)(F)F [Compound 48]	21	9	255 to 258 °C	
Cc1cc(/C=C2\S/C(=N\c3ccccc3)N(C3CCCCC3)C2=O)c(C)n1-c1ccccc1C(F)(F)F [Compound 25]	0.78	> 170	125 to 127 °C	
Cc1cc(/C=C2\SC(=O)N(C)C2=O)c(C)n1-c1ccccc1 [Compound 45]	2.2	> 290	195 to 196 °C	
CN1C(=O)/C(=C/c2cnn(-c3ccccc3C(F)(F)F)c2)S/C1=N\c1ccccc1 [Compound 38]	4.6	180		
C/N=C1\S/C(=C\c2cc(C)n(CCN3CCOCC3)c2C)C(=O)N1C [Compound 40]	5.6	78		
Cc1cc(/C=C2\S/C(=N\c3ccccc3)N(C3CCCCC3)C2=O)c(C)n1-c1ccc(Br)cc1 [Compound 21, (2Z,5Z)-3-Cyclohexyl-5-((1-(4-bromophenyl)-2,5-dimethyl-1H-pyrrol-3-yl)methylene)-2-(phenylimino)thiazolidin-4-one]	0.42	> 170	243 to 244 °C	
CCOC(=O)C1=C(C)N/C(=C/c2cc(C)n(-c3ccccc3C(F)(F)F)c2C)C1=O [TDR32750]				selectivity compared to L6 mammalian cells (P. falciparum; L6 vs P. falciparum): > 2000 fold; EC50 (P. falciparum; read-out: EC50 against P. falciparum): 0.009 µM
Cc1cc(/C=C2\S/C(=N\c3ccccc3)N(C3CCCCC3)C2=O)c(C)n1-c1ccccc1 [Compound 22]	0.25	> 200	198 to 199 °C	
C/N=C1\S/C(=C\c2cnn(-c3ccccc3C(F)(F)F)c2)C(=O)N1C [Compound 43]	3.6	34	170 to 172 °C	
CC1=CC(/C=C2\S/C(=N\c3ccccc3)N(C)C2=O)=C(C)C1c1ccccc1C(F)(F)F (stereo not shown) [Compound 34]	2.2	> 200		
